This is an account of results in US9340500B2, “Aromatic heterocyclic derivative having TRPV4-inhibiting activity” (SHIONOGI & CO., LTD., priority 2011, dated 2016).

Molecules are shown by their SMILES.

The test addresses human TRPV4 (Homo sapiens (Human), UniProt Q9HBA0). Description: Test Example 1: measurement of TRPV4 inhibitory activity (Fluo 4-AM, FLIPR TETRA, 4α-PDD 1 μmol/L). In kind it is cell-based. Conditions: hTRPV4/CHO cells; for IC50: 4α-PDD 1 μmol/L; for Ki: calculated from IC50 and 4α-PDD EC50. Here is the method: For each compound, TRPV4 inhibitory activity was measured using cells.
(1) The TRPV4 inhibitory activity was measured using CHO-K1 cells stably expressing human TRPV4 (hTRPV4/CHO cells).
(2) In the day before the experimental day, frozen cell were thawed and washed with the culture medium (MEM-α, 10% FBS, 2 mmol/L GlutaMax, 50 unit Penicillin, 50 μg/mL Streptomycin). Then cells were suspended in the culture medium.
(3) The 384-well plates which hTRPV4/CHO cells were seeded at densities of 4000 cells/well in the culture medium and cultured in a CO2 incubator in the presence of 5% CO2 at 37° C. for overnight was used as assay plates.
(4) The assay plate was washed with assay buffer (Hanks, 20 mmol/L HEPES, 2.5 mmol/L probenecid, pH7.4), and the buffer were remained at 20 μL/well.
(5) 10 μl of dye loading buffer (9 μmol/L Fluo 4-AM, 0.09% Pluronic F-127/assay buffer) was added to each well, then the assay plate was incubated in a CO2 incubator in the presence of 5% CO2 at 37° C. for one hour. (final 3 μmol/L Fluo4-AM).
(6) The assay plate was washed with the assay buffer, and the buffers were remained at 20 μL/well. Then the assay plate was incubated for 10 min at room temperature.
(7) Diluted compound solution was dispensed to each well in the compound plate, and mixed with built-in Pipette and Mixer of the Fluorescence analysis system FLIPR TETRA (Molecular devices).
(8) After incubation for 5 min, 20 μL of 4α-PDD solution were applied to each well of assay plate and mixed with the FLIPR TETRA. (final 1 μmol/L 4α-PDD)
(9) The fluorescent intensity was measured with FLIPR TETRA system for 10 min from the point of time addition the compound solution, at Ex 470-495 nm, Em 515-575 nm wavelength.
TRPV4 inhibitory activity (IC50 value and Ki value) of a compound was evaluated according to the following procedure.
(10) In the presence of the compound, the difference between maximal and minimal of fluorescent intensity value for 5 min from just before addition of 4α-PDD solution was calculated, and it was referred as Max-Min value. Max-Min value of the Ruthenium Red at 20 μM was defined as 100% inhibitory activity, Max-Min value in the absence of the compound was defined as 0% inhibitory activity. The TRPV4 inhibitory activity of the compound was calculated by the following formula. (1−(Max-Min value of the compound−100% inhibitory activity)/(0% inhibitory activity−100% inhibitory activity))×100 (11) Inhibitory activity was calculated at 10 points with three fold serial dilution, in the final concentration of the compound from 10 μmmol/L to 0.5 nmol/L, the IC50 value was calculated by logistic approximation method. (12) In the absence of the compound, the fluorescent intensity was measured as the same method with 10, 1, 0.5, 0.2, and 0 μmol/L as final concentration of 4α-PDD. The difference of minimal and maximal fluorescent intensity value for 5 min from just before addition of 4α-PDD solution was calculated, and it was referred as Max-Min value. Max-Min value of the 4α-PDD at 10 μmol/L was defined as 100% activity, Max-Min value in the absence of 4α-PDD was defined as 0% activity. The TRPV4 activity of each concentration of 4α-PDD was calculated by the following formula. (Max-Min value of the each 4α-PDD concentration−0% activity)/(100% activity−0% activity))×100 (13) Effective activity was calculated in 5 concentrations of 4α-PDD the above. The EC50 value was calculated by logistic approximation method. The Ki value of a compound was calculated by the following formula. Ki (nmol/L)=IC50 value (nmol/L)/(1+[…] (test 4α-PDD concentration (nmol/L)/EC50 value (nmol/L))

Sequence of human TRPV4 (Q9HBA0 whole entry): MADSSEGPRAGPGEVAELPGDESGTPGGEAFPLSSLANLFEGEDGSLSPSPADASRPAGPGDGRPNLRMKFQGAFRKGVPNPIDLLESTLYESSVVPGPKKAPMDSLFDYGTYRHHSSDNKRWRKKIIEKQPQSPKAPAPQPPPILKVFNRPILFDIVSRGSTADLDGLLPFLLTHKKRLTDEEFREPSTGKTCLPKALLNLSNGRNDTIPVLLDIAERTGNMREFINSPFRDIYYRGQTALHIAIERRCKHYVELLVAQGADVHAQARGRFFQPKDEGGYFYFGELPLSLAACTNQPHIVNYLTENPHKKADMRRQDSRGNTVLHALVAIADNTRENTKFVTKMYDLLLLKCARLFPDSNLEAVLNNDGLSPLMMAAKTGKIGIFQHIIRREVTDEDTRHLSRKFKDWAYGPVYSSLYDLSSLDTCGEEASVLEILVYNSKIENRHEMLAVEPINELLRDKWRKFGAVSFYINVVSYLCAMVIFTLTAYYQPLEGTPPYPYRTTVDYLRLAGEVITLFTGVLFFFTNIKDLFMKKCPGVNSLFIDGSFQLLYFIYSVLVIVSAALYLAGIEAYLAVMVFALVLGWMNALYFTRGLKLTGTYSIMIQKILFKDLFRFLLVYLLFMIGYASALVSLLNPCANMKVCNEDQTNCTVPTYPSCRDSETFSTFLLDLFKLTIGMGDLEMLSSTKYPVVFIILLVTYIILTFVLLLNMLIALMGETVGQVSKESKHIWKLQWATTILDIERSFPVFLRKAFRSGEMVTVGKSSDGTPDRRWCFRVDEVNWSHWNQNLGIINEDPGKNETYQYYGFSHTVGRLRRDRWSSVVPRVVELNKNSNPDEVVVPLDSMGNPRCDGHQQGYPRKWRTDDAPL

One may read the IC50 as the concentration at which inhibition is half-maximal. The low end stands for greater potency in that assay, the high end for weaker potency in that assay. What is called Ki is the dissociation constant of the complex between target and ligand, obtained from inhibition or displacement. Consider `CNCC(C)(C)Cn1c(C(C)(C)C)cc(C(=O)Nc2cccc(C(F)(F)F)c2)c1C` [Compound I-100], for which the IC50 came to 0.83 µM and the inhibition constant (Ki) is 0.29 µM.

`CNCCCn1c(C(C)(C)C)cc(S(=O)(=O)Nc2cccc(C(F)(F)F)c2)c1C` [Compound I-117]: the IC50 was found to be 9.2 µM and the inhibitory constant (Ki) is 2.5 µM.

For the compound `Cc1c(C(=O)Nc2cccc(C(F)(F)F)c2)cc(C2CCN(C(=O)OCc3ccccc3)CC2)n1CCCN1CCOCC1` [Compound I-075], the IC50 was 0.27 µM and the Ki was 0.13 µM.

`Cc1c(C(=O)Nc2cccc(C(F)(F)F)c2)cc(C(C)(C)C)n1C1CCN(S(C)(=O)=O)CC1` [Compound I-102]: the half-inhibitory concentration (IC50) is 4.2 µM and the Ki was 1.5 µM.

On to `Cc1c(S(=O)(=O)NCc2cccc(C(F)(F)F)c2)cc(C(C)(C)C)n1CCCN1CCOCC1` [Compound I-104], for which the IC50 was 7.7 µM and the inhibitory constant (Ki) was 2.7 µM.

In the case of `Cc1c(C(=O)Nc2cccc(C(F)(F)F)c2)cc(C(C)(C)C)n1CC(C)(C)CN1CCOCC1` [Compound I-108], the midpoint of inhibition, the IC50, lay at 0.54 µM and the inhibition constant (Ki) was 0.17 µM.

`Cc1c(-c2nc3ccccc3[nH]2)cc(C(C)(C)C)n1CCCN1CCNCC1` [Compound I-128] registered an IC50 of 5.4 µM.

Take `Cc1c(C(=O)Nc2cccc(C(F)(F)F)c2)cc(C(C)(C)C)n1CC(C)(C)CN1CCNCC1` [Compound I-123]: the IC50 came out at 1.4 µM and the inhibition constant (Ki) was 0.45 µM.

As for `CN[C@H]1CC[C@H](n2c(C(C)(C)C)cc(C(=O)Nc3cccc(C(F)(F)F)c3)c2C)CC1` [Compound I-112], 5.6 µM corresponded to half-maximal inhibition (IC50) and the inhibition constant Ki was 1.5 µM.

As for `Cc1c(C(=O)Nc2cccc(C(F)(F)F)c2)cc(C(C)(C)C)n1CC(F)(F)CN1CCOCC1` [Compound I-122], the IC50 amounted to 0.78 µM and the Ki is 0.24 µM.

As to `Cc1c(C(=O)Nc2cccc(C(F)(F)F)c2)cc(C(C)(C)C)n1[C@H]1CC[C@@H](NS(C)(=O)=O)CC1` [Compound I-115], half-maximal inhibition (IC50) required 6 µM and the Ki is 1.6 µM.

Turning to `Cc1c(C(=O)Nc2cccc(C(F)(F)F)c2)cc(C(C)(C)C)n1[C@H]1CC[C@H](N(C)C)CC1` [Compound I-113], the midpoint of inhibition, the IC50, lay at 5.8 µM and the inhibition constant Ki was 1.5 µM.

Take `COC(=O)CN1CCC(n2c(C(C)(C)C)cc(C(=O)Nc3cccc(C(F)(F)F)c3)c2C)CC1` [Compound I-107]: the IC50 is 6.6 µM and the Ki is 2.1 µM.

For the compound `CC(=O)N1CCC(n2c(C(C)(C)C)cc(C(=O)Nc3cccc(C(F)(F)F)c3)c2C)CC1` [Compound I-101], the IC50 came to 7.4 µM and the inhibition constant Ki was 2.6 µM.

Take `Cc1c(C(=O)Nc2cccc(C(F)(F)F)c2)cc(C(C)(C)C)n1C1CCN(C2CCNCC2)CC1` [Compound I-109]: the IC50 was 6.3 µM and the Ki was 2.3 µM.

As to `Cc1c(S(=O)(=O)Nc2cccc(C(F)(F)F)c2)cc(C(C)(C)C)n1CCCN1CCOCC1` [Compound I-118], the IC50 turned out to be 9.2 µM and the inhibition constant Ki is 2.5 µM.

For the compound `CNCC(F)(F)Cn1c(C(C)(C)C)cc(C(=O)Nc2cccc(C(F)(F)F)c2)c1C` [Compound I-121], the 50% inhibitory concentration (IC50) is 1.4 µM and the Ki was 0.45 µM.

On to `Cc1c(C(=O)Nc2cccc(C(F)(F)F)c2)cc(C2CCCCC2)n1CCCN1CCOCC1` [Compound I-072], for which the half-maximal inhibitory concentration (IC50) was 0.045 µM and the inhibition constant (Ki) is 0.021 µM.

For the compound `Cc1c(C(=O)Nc2cccc(C(F)(F)F)c2)cc(C(C)(C)C)n1CC(F)(F)CN1CCNCC1` [Compound I-125], the half-maximal inhibitory concentration (IC50) is 1.5 µM.

Turning to `Cc1c(C(=O)Nc2cccc(C(F)(F)F)c2)cc(C(C)(C)C)n1C1CCN(CCO)CC1` [Compound I-110], half-maximal inhibition (IC50) required 6.6 µM and the Ki is 2.4 µM.

Turning to `Cc1c(C(=O)Nc2cccc(C(F)(F)F)c2)cc(C(C)(C)C)n1C1CCNCC1` [Compound I-099], the concentration for half-maximal inhibition (IC50) is 5.9 µM and the Ki was 2.1 µM.

With `Cc1c(C(=O)Nc2cccc(C(F)(F)F)c2)cc(C(C)(C)C)n1[C@H]1CC[C@@H](N(C)S(C)(=O)=O)CC1` [Compound I-120], the 50% inhibitory concentration (IC50) was found to be 3.5 µM and the Ki was 1.1 µM.

Turning to `Cc1c(C(=O)Nc2cccc(C(F)(F)F)c2)cc(C(C)(C)C)n1[C@H]1CC[C@@H](N)CC1` [Compound I-116], the IC50 came out at 5.3 µM and the Ki was 1.5 µM.

Consider `Cc1c(-c2nc3ccccc3o2)cc(C(C)(C)C)n1CCCN1CCNCC1` [Compound I-126], for which the concentration for half-maximal inhibition (IC50) worked out at 4.5 µM.

`Cc1c(C(=O)Nc2cccc(C(F)(F)F)c2)cc(C(C)(C)C)n1C1CCN(C)CC1` [Compound I-106]: inhibition was half-maximal at 3.9 µM (IC50) and the Ki was 1.2 µM.

On to `Cc1c(C(=O)Nc2cccc(C(F)(F)F)c2)cc(C(C)(C)C)n1[C@H]1CC[C@H](N)CC1` [Compound I-111], for which the IC50 came to 4.1 µM and the Ki is 1.5 µM.

The compound `Cc1c(C(=O)Nc2cccc(C(F)(F)F)c2)cc(C(C)(C)C)n1CCC(C)N1CCNCC1` (stereo not drawn) [Compound I-124] registered a half-maximal inhibitory concentration (IC50) of 0.26 µM.

For `Cc1c(C(=O)Nc2cccc(C(F)(F)F)c2)cc(C(C)(C)C)n1[C@H]1CC[C@H](NS(C)(=O)=O)CC1` [Compound I-114], the IC50 was determined as 8.7 µM and the Ki is 2.3 µM.

For `CNC(=O)CCn1c(C(C)(C)C)cc(C(=O)Nc2cccc(C(F)(F)F)c2)c1C` [Compound I-092], the IC50 came to 6.4 µM and the inhibition constant Ki is 2.4 µM.

For `Cc1c(C(=O)Nc2cccc(C(F)(F)F)c2)cc(C(C)(C)C)n1CCC(=O)N1CCNCC1` [Compound I-093], the half-inhibitory concentration (IC50) turned out to be 1.4 µM and the inhibition constant (Ki) is 0.53 µM.

In turn, `CNCCCn1c(C(C)(C)C)cc(-c2nc3ccccc3[nH]2)c1C` [Compound I-129] yielded an IC50 of 6.4 µM. This lies in the single-digit micromolar range.

Turning to `Cc1c(C(=O)Nc2cccc(C(F)(F)F)c2)cc(C(C)(C)C)n1CCC(=O)N1CCOCC1` [Compound I-091], inhibition was half-maximal at 1.5 µM (IC50) and the inhibitory constant (Ki) was 0.56 µM.

Consider `CNC(C)CCn1c(C(C)(C)C)cc(C(=O)Nc2cccc(C(F)(F)F)c2)c1C` (stereo not drawn) [Compound I-096], for which the IC50 came out at 0.42 µM and the Ki is 0.13 µM.

For `Cc1c(C(=O)Nc2cccc(C(F)(F)F)c2)cc(C(C)(C)C)n1CCS(=O)(=O)N1CCOCC1` [Compound I-095], half-maximal inhibition (IC50) required 0.97 µM and the inhibitory constant (Ki) was 0.38 µM.

With `Cc1c(C(=O)Nc2cccc(C(F)(F)F)c2)cc(C(C)(C)C)n1CCS(=O)(=O)N1CCNCC1` [Compound I-098], the IC50 stood at 1.9 µM and the inhibitory constant (Ki) is 0.59 µM.

Consider `Cc1c(C(=O)Nc2cccc(C(F)(F)F)c2)cc(C(C)(C)C)n1CCC(C)N1CCOCC1` (stereo not drawn) [Compound I-097], for which the IC50 stood at 0.43 µM and the Ki is 0.13 µM.

Regarding `CNS(=O)(=O)CCn1c(C(C)(C)C)cc(C(=O)Nc2cccc(C(F)(F)F)c2)c1C` [Compound I-094], the IC50 was found to be 6.1 µM and the inhibitory constant (Ki) was 2.2 µM.

As for `CCOC(=O)CCn1c(C(C)(C)C)cc(C(=O)Nc2cccc(C(F)(F)F)c2)c1C` [Compound I-090], the midpoint of inhibition, the IC50, lay at 1.1 µM and the Ki was 0.38 µM.

The compound `Cc1c(-c2nc3ccccc3[nH]2)cc(C(C)(C)C)n1CCCN1CCOCC1` [Compound I-127] gave an IC50 of 3.1 µM.
